What was measured:
[1] = system: guinea pigs' skin; assay: Blocking effects against UV ray irradiated on guinea pigs' skin; type: in vivo, male Hartley guinea pigs; settings: for UV ray blocking effect score: total score for 2.5% and 5% ointments, 6 irradiated sites each scored 0-4, complete blocking = 24, UV 3000 Lux for 90 s, read 24 hours after irradiation
Experimental: Each compound of the present invention and commercially available p-methoxy cinnamic acid-2-ethyl hexyl as a positive reference were mixed with an ointment base (Plastibase), and 2.5% (mass % of active ingredient) and 5% ointment were prepared for each. The belly area of male Hartley guinea pigs that were 6 to 10 weeks old was shaved, and then further close shaved using an electric shaver. The test animals were then anaesthetized by injecting pentobarbital sodium (30 mg/kg) in their abdominal cavity. Then, 100 mg of the base material, 2.5% ointment and the 5% ointment were respectively spread in 6 to 7 cm long/15 cm wide areas of the shaved belly area of the test animal starting from its head. 10 minutes after spreading, the skin was covered with a piece of felt in which 9 holes (3×3) with 1 cm diameter had been made. A UV ray (3000 Lux) was then irradiated for a 90 second period. 24 hours after the irradiation, the intensity of the red circular marks that had been produced were observed, and the blocking effect investigated. Note that, the evaluation of the UV ray blocking effect was carried out in accordance with the following evaluation criteria (score based on 5 level evaluation).
In advance, 99 types of related compound were prepared using the test method described above as 10% ointments including the compounds of the present invention (the compounds expressed by formula I) and the compounds that are the active ingredient of the UV ray protection agent of the present invention (the compounds expressed by formula I′). A screening test was performed, and 9 compounds that 100% blocked the UV rays selected. Then, lower concentration ointments were prepared for these 9 compounds and an investigation was carried out to test the UV ray protection effect thereof. Note that, as a reference compound, the results for p-methoxy cinnamic acid ethyl hexyl that is used as the active ingredient in commercially sold UV ray protection agents are also shown.

[2] = Acute toxicity resulting from single under skin injection in mice; type: in vivo, male ddY mice; settings: male, ddY, mouse, in vivo, subcutaneous, 1 g/kg; single under skin injection, mice
Experimental: (§1) An investigation was carried out using 5 week old male ddY mice.
(§2) Each compound (250 mg) was placed in suspension using the same amount of Tween-80, and then diluted with physiologic saline (5 mL) to form a 5% suspension. Then, supersonic treatment was performed to create the specimen. 0.2 mL/10 g (1 g/kg) of the specimen was injected per body weight under the skin of the back portion of each mouse in groups of five mice. The behavior of the mice was then observed for 1 week after injection while the mice were fed. The body weight of the mice was measured on the 1st, 3rd, 6th and 7th days. After one week, an abdominal section was performed, and changes in the various internal organs and abnormality of the injected area checked for.

[3] = system: mice; assay: as above; type: in vivo, male ddY mice; settings: single under skin injection 1 g/kg; for Case of death: groups of five mice; for Case of death / Observed items: observed 1 week; for body weight of the mice following injection: weighed on days 1, 3, 6, 7
Experimental: as §1, §2

Row | Compound | UV ray blocking effect score [1] | LD50 at 1 week [2] [mg/kg] | body weight by the 7th day following injection [3] | Case of death [3] | Observed items [3] | body weight of the mice following injection [3] | UV ray protection effect (in words) ([1]; 2.5% and 5% ointments, comparison within Table 1)
1 | COc1cccc(C(=O)Oc2ccc(C)cc2)c1 [CU-5008] | 13 | ≥ 1000 | recovered to its level at the time of the first injection | 0/5 | Weight reduction | decreased | 
2 | Cc1ccc(OC(=O)c2ccc3ccccc3c2)cc1 [CU-5004, p-tolyl-2-naphthyl carboxylate] | 20 | ≥ 1000 | recovered to its level at the time of the first injection | 0/5 | Weight reduction | decreased | 
3 | COc1ccc(C(=O)Oc2ccc(C)cc2)cc1 [CU-5009, p-tolyl anisate] | 19 | ≥ 1000 | recovered to its level at the time of the first injection | 0/5 | Weight reduction | decreased | 
4 | Cc1ccc([N+](=O)[O-])cc1OC(=O)C=Cc1ccccc1 [CU-11005] | 12 |  |  |  |  |  | 
5 | C/C=C/C(=O)Nc1ccccc1C(=O)O [CU-1008] | 20 |  |  |  |  |  | 
6 | CCCCC(CC)COC(=O)C=Cc1ccc(OC)cc1 (stereo not drawn) [p-Methoxy-cinnamic acid-2-ethyl hexyl, reference compound] | 18 |  |  |  |  |  | 
7 | O=C(Oc1cccc2ccccc12)c1ccccc1F [CU-9005] | 24 |  |  |  |  |  | strongest UV ray protection effect
8 | O=C(Oc1ccc2ccccc2c1)c1ccccc1F [CU-10005] | 7 | ≥ 1000 |  | 0/5 | No abnormalities | increased following injection in the same manner as the body weight of the mice in a reference group | 
9 | COc1cccc(C(=O)Oc2ccccc2C)c1 [CU-2102] | 15 |  |  |  |  |  | 
10 | Cc1ccccc1OC(=O)c1ccc2ccccc2c1 [CU-2010, o-tolyl-2-naphthyl carboxylate] | 21 |  |  |  |  |  | 

Reference: patent publication US7361785B2, “Compound protecting against ultraviolet rays” (Lead Chemical Co., Ltd., priority 2002, dated 2008)
